For three molecules, IC50 results are on record in ChEMBL document CHEMBL5137064, “Therapeutic Potential and Activity Modulation of the Protein Lysine Deacylase Sirtuin 5” (J Med Chem, 2022).

For assay [1], the target named is T1, NAD-dependent protein deacetylase sirtuin-2 (Homo sapiens, UniProt Q8IXJ6).
T1 sequence (Q8IXJ6 whole entry): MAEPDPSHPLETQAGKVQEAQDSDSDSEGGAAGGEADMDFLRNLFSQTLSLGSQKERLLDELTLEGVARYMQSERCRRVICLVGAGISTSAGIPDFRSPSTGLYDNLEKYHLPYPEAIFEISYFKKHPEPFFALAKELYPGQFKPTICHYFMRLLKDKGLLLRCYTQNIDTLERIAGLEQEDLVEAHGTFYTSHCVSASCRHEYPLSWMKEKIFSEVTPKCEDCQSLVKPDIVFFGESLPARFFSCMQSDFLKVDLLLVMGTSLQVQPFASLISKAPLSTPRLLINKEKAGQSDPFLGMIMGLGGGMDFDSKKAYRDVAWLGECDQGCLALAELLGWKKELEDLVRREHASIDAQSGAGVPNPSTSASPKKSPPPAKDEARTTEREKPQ
Nature of the assay: Inhibition of recombinant SIRT2 (unknown origin) using […] as substrate incubated for 4 hrs by homogenous fluorescent deacetylase assay.

Assay [2] can be described thus: Cytotoxicity against human PDAC cells assessed as cell viability. The class given is functional, cell-based.
Assay [3] has as its target T2, NAD-dependent protein deacetylase sirtuin-1 (Homo sapiens, UniProt Q96EB6).
T2 sequence (Q96EB6 whole entry): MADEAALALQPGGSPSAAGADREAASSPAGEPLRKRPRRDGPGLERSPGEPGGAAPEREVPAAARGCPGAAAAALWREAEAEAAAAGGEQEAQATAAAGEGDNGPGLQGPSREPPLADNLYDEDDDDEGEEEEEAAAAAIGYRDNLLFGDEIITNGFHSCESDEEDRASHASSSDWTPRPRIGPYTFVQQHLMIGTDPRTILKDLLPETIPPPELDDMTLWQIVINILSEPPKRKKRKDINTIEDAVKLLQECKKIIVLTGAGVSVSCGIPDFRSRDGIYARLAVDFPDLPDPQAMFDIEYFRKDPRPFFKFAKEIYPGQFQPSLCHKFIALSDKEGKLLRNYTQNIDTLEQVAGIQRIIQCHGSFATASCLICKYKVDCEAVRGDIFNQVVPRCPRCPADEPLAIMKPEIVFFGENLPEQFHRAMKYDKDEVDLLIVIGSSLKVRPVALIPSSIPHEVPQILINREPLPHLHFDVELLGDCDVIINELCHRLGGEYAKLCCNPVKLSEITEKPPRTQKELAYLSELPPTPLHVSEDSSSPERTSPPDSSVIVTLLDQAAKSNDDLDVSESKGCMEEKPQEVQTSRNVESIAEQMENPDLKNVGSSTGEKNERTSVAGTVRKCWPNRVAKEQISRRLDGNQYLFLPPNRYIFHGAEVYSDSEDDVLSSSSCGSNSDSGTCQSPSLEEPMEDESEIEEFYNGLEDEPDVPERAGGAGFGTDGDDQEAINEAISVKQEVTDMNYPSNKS
Put plainly: Inhibition of His6-tagged SIRT1 (unknown origin) desuccinylase activity incubated for 10 mins by HPLC based assay.

The target in assay [4] is T1, NAD-dependent protein deacetylase sirtuin-2. Put plainly: Inhibition of His6-tagged SIRT2 (unknown origin) desuccinylase activity incubated for 12 mins by HPLC based assay.
The target of assay [5] is T3, NAD-dependent protein deacetylase sirtuin-3, mitochondrial (Homo sapiens, UniProt Q9NTG7).
T3 sequence (Q9NTG7 whole entry): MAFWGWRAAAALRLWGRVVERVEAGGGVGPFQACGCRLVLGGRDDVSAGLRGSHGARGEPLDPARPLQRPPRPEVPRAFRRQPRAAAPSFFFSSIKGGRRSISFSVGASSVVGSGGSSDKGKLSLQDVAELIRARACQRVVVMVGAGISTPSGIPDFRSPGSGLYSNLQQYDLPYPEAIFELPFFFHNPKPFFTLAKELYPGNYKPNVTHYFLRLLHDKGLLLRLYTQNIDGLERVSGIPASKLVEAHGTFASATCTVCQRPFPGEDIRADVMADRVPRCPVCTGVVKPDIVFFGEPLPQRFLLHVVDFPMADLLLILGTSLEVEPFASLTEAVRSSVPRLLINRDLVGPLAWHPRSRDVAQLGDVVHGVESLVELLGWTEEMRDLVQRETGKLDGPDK
Nature of the assay: Inhibition of His6-tagged SIRT3 (unknown origin) desuccinylase activity incubated for 10 mins by HPLC based assay.

For assay [6], the target named is NAD-dependent protein deacylase sirtuin-6 (Homo sapiens, UniProt Q8N6T7). Put plainly: Inhibition of His6-tagged SIRT6 (unknown origin) desuccinylase activity incubated for 12 mins by HPLC based assay.
NAD-dependent protein deacylase sirtuin-6, sequence (Q8N6T7 whole entry): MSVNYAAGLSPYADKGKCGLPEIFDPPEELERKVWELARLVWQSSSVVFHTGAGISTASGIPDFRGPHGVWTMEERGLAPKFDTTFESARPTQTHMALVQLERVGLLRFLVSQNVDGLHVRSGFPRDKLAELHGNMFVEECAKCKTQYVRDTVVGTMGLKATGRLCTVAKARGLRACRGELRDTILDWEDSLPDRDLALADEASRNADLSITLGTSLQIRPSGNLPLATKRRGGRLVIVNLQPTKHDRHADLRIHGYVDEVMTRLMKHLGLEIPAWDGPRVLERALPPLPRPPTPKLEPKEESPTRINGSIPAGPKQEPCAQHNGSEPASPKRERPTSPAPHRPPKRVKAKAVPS
Assay [7] concerns the target NAD-dependent protein deacylase sirtuin-5, mitochondrial (Homo sapiens, UniProt Q9NXA8). Put plainly: Inhibition of GST-tagged SIRT5 desuccinylase activity (unknown origin) incubated for 5 mins by HPLC based assay.

Each structure is given as a SMILES string. pIC50: −log10 of the molar value. *1 amine or outer side, *2 acyl side, *3 side chain or, on linkers, in order; H or OH if unused. Where a SMILES comes first, the peptide text is derived from it. Bridges are numbered along the chain shown (N, C = ends). [ ]: non-standard residue; d: D form. X1 = O=C(O)CCNC(=S)NCCCC[C@H](N[*:1])C(=O)[*:2]; Heptanedioyl = O=C(CCCCCC(=O)[*:2])[*:1] Where only a bound is given, the exact number is not on record here.

In general, pIC50 refers to the IC50 on a negative log10 scale, so that one unit is a factor of ten.

NAD-dependent protein deacylase sirtuin-5, mitochondrial, sequence (Q9NXA8 whole entry): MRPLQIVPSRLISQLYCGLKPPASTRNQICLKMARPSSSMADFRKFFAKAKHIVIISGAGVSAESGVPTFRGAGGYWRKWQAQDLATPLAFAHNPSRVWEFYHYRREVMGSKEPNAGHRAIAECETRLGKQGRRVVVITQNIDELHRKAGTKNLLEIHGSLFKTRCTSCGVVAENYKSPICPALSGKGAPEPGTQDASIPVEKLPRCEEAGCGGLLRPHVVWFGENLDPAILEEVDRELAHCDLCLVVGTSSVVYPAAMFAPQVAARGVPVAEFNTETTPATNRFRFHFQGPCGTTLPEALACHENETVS

For the molecule `Cc1ccc(C(=O)Nc2ccc(S(=O)(=O)O)c3cc(S(=O)(=O)O)cc(S(=O)(=O)O)c23)cc1NC(=O)c1cccc(NC(=O)Nc2cccc(C(=O)Nc3cc(C(=O)Nc4ccc(S(=O)(=O)O)c5cc(S(=O)(=O)O)cc(S(=O)(=O)O)c45)ccc3C)c2)c1` [SURAMIN], the pIC50 in assay [1] was 5.94.

Consider `CCOC(=O)C1=CN(C(=O)c2ccccc2)C=C(C(=O)OCC)C1c1cccc(OC)c1`, for which the pIC50 in assay [2] is 4.60.

With `CC(=O)N[C@H]1CCCCNC(=O)CCCCCC(=O)NCCCC[C@@H](C(=O)N[C@H](C(N)=O)[C@@H](C)O)NC(=O)[C@H](CCCCNC(=S)NCCC(=O)O)NC(=O)[C@H](CCCNC(=N)N)NC1=O` (Ac-KR[X1]KT-NH2; linker 1-4 via Heptanedioyl), the negative logarithm of the IC50 (pIC50) in assay [3] was below 3.00; in assay [4], below 3.00; in assay [5], below 3.00; in assay [6] it was below 3.00; in assay [7], 5.12.
